The target in one assay is T1, rat FAAH (Rattus norvegicus, UniProt P97612).
T1 sequence (P97612 1-579): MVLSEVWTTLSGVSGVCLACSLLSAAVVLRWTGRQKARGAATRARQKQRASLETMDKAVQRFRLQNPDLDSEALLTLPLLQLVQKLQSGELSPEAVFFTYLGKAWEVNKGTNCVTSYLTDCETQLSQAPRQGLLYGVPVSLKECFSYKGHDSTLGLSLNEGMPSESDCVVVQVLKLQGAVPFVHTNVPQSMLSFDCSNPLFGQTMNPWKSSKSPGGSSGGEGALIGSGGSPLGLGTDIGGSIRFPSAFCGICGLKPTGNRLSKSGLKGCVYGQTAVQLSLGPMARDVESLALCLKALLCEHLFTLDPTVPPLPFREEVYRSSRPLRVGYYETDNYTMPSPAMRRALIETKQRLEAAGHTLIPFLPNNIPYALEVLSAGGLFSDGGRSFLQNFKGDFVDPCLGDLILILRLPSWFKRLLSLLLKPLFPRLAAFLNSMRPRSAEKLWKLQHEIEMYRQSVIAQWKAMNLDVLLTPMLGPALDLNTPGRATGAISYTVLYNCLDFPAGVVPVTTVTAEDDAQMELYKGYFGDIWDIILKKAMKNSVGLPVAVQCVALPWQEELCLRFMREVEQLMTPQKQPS
In words: Assay Method 2: FAAH assay, 3H-anandamide hydrolysis in homogenate of SK-N-MC cells transfected with rat FAAH. The class given is biochemical. The settings on record: average of results, > = solubility limit or highest concentration tested. The method, boiled down:
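Read-out is scintillation counting of [3H]-ethanolamine passing through activated charcoal, after 1 h at rt with 80 nM final [3H]-AEA. Enzyme source: lysate of G418-selected SK-N-MC clones expressing rat FAAH, homogenized in Tris/EDTA/glycerol/0.02% Triton buffer, pH 9.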

For the next assay, the target named is T2, FAAH (Homo sapiens, UniProt O00519).
T2 sequence (O00519 1-579): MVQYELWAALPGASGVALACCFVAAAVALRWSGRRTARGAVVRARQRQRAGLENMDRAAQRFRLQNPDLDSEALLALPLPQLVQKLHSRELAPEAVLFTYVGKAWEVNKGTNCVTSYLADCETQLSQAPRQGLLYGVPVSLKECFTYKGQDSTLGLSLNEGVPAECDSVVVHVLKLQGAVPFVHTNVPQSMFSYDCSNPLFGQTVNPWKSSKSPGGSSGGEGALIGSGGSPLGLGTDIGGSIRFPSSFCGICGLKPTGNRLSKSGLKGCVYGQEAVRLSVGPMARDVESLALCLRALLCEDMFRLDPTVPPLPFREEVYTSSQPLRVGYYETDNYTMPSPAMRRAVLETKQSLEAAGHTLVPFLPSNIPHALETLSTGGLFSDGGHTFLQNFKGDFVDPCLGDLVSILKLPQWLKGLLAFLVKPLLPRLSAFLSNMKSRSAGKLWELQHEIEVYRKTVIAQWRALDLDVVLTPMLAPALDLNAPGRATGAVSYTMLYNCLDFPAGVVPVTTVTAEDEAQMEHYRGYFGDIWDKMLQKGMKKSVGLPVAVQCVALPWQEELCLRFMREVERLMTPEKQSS
Put plainly: Assay Method 1: FAAH assay, 3H-anandamide hydrolysis in homogenate of T84 cells or SK-N-MC cells transfected with human FAAH. As to conditions: average of results, > = solubility limit or highest concentration tested. In kind it is biochemical. The method, boiled down: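 Hydrolysis of ^3H-anandamide (80 nM final, added last) was measured over 1 h at rt, using test compound with homogenate of T84 cells or human FAAH-transfected SK-N-MC cells. The homogenization buffer was 125 mM Tris, 1 mM EDTA, 0.02% Triton X-100, pH 9. Unbound labelled ethanolamine was passed through charcoal filters and scintillation-counted.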

Structures can show the parent of a compound that is named as a salt. Bounds are passed on as bounds.

On to `O=C(Nc1nn[nH]n1)N1CCN(Cc2cccc(Oc3ccc(F)c(F)c3)c2)CC1` [Example 169, 4-[3-(3,4-Difluorophenoxy)benzyl]-N-1H-tetrazol-5-ylpiperazine-1-carboxamide], for which the IC50 on rat FAAH stood at 600 nM; on FAAH, 610 nM.
On the same counts, the results for `N#Cc1ccc(Oc2cccc(CN3CCN(C(=O)Nc4nn[nH]n4)CC3)c2)cc1C(F)(F)F` [Example 170, 4-{3-[4-Cyano-3-(trifluoromethyl)phenoxy]benzyl}-N-1H-tetrazol-5-ylpiperazine-1-carboxamide] are 1800 nM and 1200 nM.
On the same counts, the results for `O=C(Nc1nnn[nH]1)N1CCN(Cc2cccc(Oc3ccc(C(F)(F)F)cc3)c2)CC1` [Example 171, N-1H-Tetrazol-5-yl-4-{3-[4-(trifluoromethyl)phenoxy]benzyl}piperazine-1-carboxamide] are 35 nM and 200 nM.
On the same counts, the results for `O=C(Nc1nnn[nH]1)N1CCN(Cc2cccc(Oc3ccc(SC(F)(F)F)cc3)c2)CC1` [Example 172, N-1H-Tetrazol-5-yl-4-(3-{4-[(trifluoromethyl)sulfanyl]phenoxy}benzyl)-piperazine-1-carboxamide] are 10 nM and 50 nM.
In the case of `O=C(Nc1nnn[nH]1)N1CCN(Cc2cccc(Oc3cccc(OC(F)(F)F)c3)c2)CC1` [Example 173, N-1H-Tetrazol-5-yl-4-{3-[3-(trifluoromethoxy)phenoxy]benzyl}piperazine-1-carboxamide], the IC50 on rat FAAH turned out to be 200 nM; against FAAH, 225 nM.
On to `O=C(Nc1nnn[nH]1)N1CCN(Cc2cccc(Oc3ccc(Cl)c(Cl)c3)c2)CC1` [Example 174, 4-[3-(3,4-Dichlorophenoxy)benzyl]-N-1H-tetrazol-5-ylpiperazine-1-carboxamide], for which the IC50 worked out at 30 nM against rat FAAH and 100 nM on FAAH.
As for `O=C(Nc1nnn[nH]1)N1CCN(Cc2ccc3ccccc3c2)CC1` [Example 176, 4-(Naphthalen-2-ylmethyl)-N-1H-tetrazol-5-ylpiperazine-1-carboxamide], the IC50 at rat FAAH was 450 nM; on FAAH, 2000 nM.
Taken in the same sequence, the figures for `O=C(Nc1nn[nH]n1)N1CCN(Cc2ccc(Br)cc2)CC1` [Example 177, 4-(4-Bromo-benzyl)-piperazine-1-carboxylic acid (2H-tetrazol-5-yl)-amide] were 1700 nM and 5000 nM.
Taken in the same sequence, the figures for `O=C(Nc1nn[nH]n1)N1CCN(Cc2ccc3cc[nH]c3c2)CC1` [Example 178, 4-(1H-Indol-6-ylmethyl)-piperazine-1-carboxylic acid (2H-tetrazol-5-yl)-amide] were greater than 10000 nM and greater than 10000 nM.
On the same counts, the results for `O=C(Nc1nn[nH]n1)N1CCN(Cc2cccc(OCc3ccccc3)c2)CC1` [Example 179, 4-(3-Benzyloxy-benzyl)-piperazine-1-carboxylic acid (2H-tetrazol-5-yl)-amide] are 1200 nM and 1600 nM.
Turning to `O=C(Nc1nn[nH]n1)N1CCN(Cc2cccc(Oc3ccccc3)c2)CC1` [Example 181, 4-(3-Phenoxy-benzyl)-piperazine-1-carboxylic acid (2H-tetrazol-5-yl)-amide], the IC50 stood at 1600 nM against rat FAAH and 5000 nM at FAAH.
In the case of `O=C(Nc1nn[nH]n1)N1CCN(Cc2ccc(Cl)c(Cl)c2)CC1` [Example 182, 4-(3,4-Dichloro-benzyl)-piperazine-1-carboxylic acid (2H-tetrazol-5-yl)-amide], the IC50 was 340 nM on rat FAAH and 1700 nM against FAAH.
On the same counts, the results for `O=C(Nc1nn[nH]n1)N1CCN(Cc2cc3ccccc3s2)CC1` [Example 183, 4-Benzo[b]thiophen-2-ylmethyl-piperazine-1-carboxylic acid (2H-tetrazol-5-yl)-amide] are 430 nM and 1400 nM.
`O=C(Nc1nn[nH]n1)N1CCN(Cc2cccc(Oc3ccc(F)c(C(F)(F)F)c3)c2)CC1` [Example 185, 4-{3-[4-Fluoro-3-(trifluoromethyl)phenoxy]benzyl}-N-2H-tetrazol-5-ylpiperazine-1-carboxamide]: the values for the IC50 against rat FAAH and at FAAH were 440 nM and 450 nM, respectively.
As to `O=C(Nc1nn[nH]n1)N1CCN(Cc2cccc(Oc3cccc(C(F)(F)F)c3)c2)CC1` [Example 186, N-2H-Tetrazol-5-yl-4-{3-[3-(trifluoromethyl)phenoxy]benzyl}piperazine-1-carboxamide], the IC50 against rat FAAH turned out to be 160 nM; at FAAH it was 330 nM.
Taken in the same sequence, the figures for `N#Cc1ccc(Oc2cccc(CN3CCN(C(=O)Nc4nn[nH]n4)CC3)c2)cc1` [Example 187, 4-[3-(4-Cyanophenoxy)benzyl]-N-2H-tetrazol-5-ylpiperazine-1-carboxamide] were 1000 nM and 1600 nM.
On the same counts, the results for `O=C(Nc1nn[nH]n1)N1CCN(Cc2cccc(Oc3ccc(OCC(F)(F)F)cc3)c2)CC1` [Example 188, N-2H-Tetrazol-5-yl-4-{3-[4-(2,2,2-trifluoroethoxy)phenoxy]benzyl}-piperazine-1-carboxamide] are 20 nM and 80 nM.
With `O=C(Nc1nn[nH]n1)N1CCN(Cc2cccc(Oc3ccc4c(c3)OC(F)(F)O4)c2)CC1` [Example 189, 4-{3-[(2,2-Difluoro-1,3-benzodioxol-5-yl)oxy]benzyl}-N-2H-tetrazol-5-ylpiperazine-1-carboxamide], the IC50 on rat FAAH is 17 nM; against FAAH, 70 nM.
On the same counts, the results for `O=C(Nc1nn[nH]n1)N1CCN(Cc2cccc(Oc3ccccc3Cl)c2)CC1` [Example 190, 4-[3-(2-Chlorophenoxy)benzyl]-N-2H-tetrazol-5-ylpiperazine-1-carboxamide] are 3700 nM and 3000 nM.
Turning to `Cc1cc(NC(=O)N2CCN(Cc3cccc(Oc4ccc(Cl)cc4)c3)CC2)nn1C` [Example 191, 4-[3-(4-Chloro-phenoxy)-benzyl]-piperazine-1-carboxylic acid (1,5-dimethyl-1H-pyrazol-3-yl)-amide trifluoroacetic acid salt], the IC50 against rat FAAH is greater than 10000 nM; at FAAH, 3000 nM.
Regarding `Cn1cc(Br)c(NC(=O)N2CCN(Cc3cccc(Oc4ccc(Cl)cc4)c3)CC2)n1` [Example 192, 4-[3-(4-Chloro-phenoxy)-benzyl]-piperazine-1-carboxylic acid (4-bromo-1-methyl-1H-pyrazol-3-yl)-amide trifluoroacetic acid salt], the IC50 is greater than 10000 nM against rat FAAH and 4000 nM at FAAH.
With `CCn1nccc1NC(=O)N1CCN(Cc2cccc(Oc3ccc(Cl)cc3)c2)CC1` [Example 193, 4-[3-(4-Chloro-phenoxy)-benzyl]-piperazine-1-carboxylic acid (2-ethyl-2H-pyrazol-3-yl)-amide trifluoroacetic acid salt], the IC50 is 6000 nM on rat FAAH and 327 nM against FAAH.
Take `Cc1cc(NC(=O)N2CCN(Cc3cccc(Oc4ccc(Cl)cc4)c3)CC2)n[nH]1` [Example 194, 4-[3-(4-Chlorophenoxy)benzyl]-N-(5-methyl-1H-pyrazol-3-yl)piperazine-1-carboxamide]: the values for the IC50 at rat FAAH and against FAAH were 4000 nM and 220 nM, respectively.
On to `O=C(Nc1cccnn1)N1CCN(Cc2ccc(Br)c(Br)c2)CC1` [Example 195, 4-(3,4-Dibromobenzyl)-N-pyridazin-3-ylpiperazine-1-carboxamide], for which the IC50 against rat FAAH was 310 nM; against FAAH, 110 nM.
Taken in the same sequence, the figures for `O=C(Nc1cccnn1)N1CCN(Cc2ccc3c(c2)OC(F)(F)O3)CC1` [Example 196, 4-[(2,2-Difluoro-1,3-benzodioxol-5-yl)methyl]-N-pyridazin-3-ylpiperazine-1-carboxamide] were 1600 nM and 6000 nM.
Taken in the same sequence, the figures for `O=C(Nc1cccnn1)N1CCN(Cc2cnc3ccccc3c2)CC1` [Example 197, N-Pyridazin-3-yl-4-(quinolin-3-ylmethyl)piperazine-1-carboxamide] were 9000 nM and 1300 nM.

The term IC50 denotes the concentration that gives 50% inhibition. Low values mean inhibition by little substance, high ones a need for much substance.
